What all share (type): biochemical
Assay [1] concerns the target T1, aggrecanase-1 (Homo sapiens, UniProt O75173).
T1 sequence (O75173 213-837): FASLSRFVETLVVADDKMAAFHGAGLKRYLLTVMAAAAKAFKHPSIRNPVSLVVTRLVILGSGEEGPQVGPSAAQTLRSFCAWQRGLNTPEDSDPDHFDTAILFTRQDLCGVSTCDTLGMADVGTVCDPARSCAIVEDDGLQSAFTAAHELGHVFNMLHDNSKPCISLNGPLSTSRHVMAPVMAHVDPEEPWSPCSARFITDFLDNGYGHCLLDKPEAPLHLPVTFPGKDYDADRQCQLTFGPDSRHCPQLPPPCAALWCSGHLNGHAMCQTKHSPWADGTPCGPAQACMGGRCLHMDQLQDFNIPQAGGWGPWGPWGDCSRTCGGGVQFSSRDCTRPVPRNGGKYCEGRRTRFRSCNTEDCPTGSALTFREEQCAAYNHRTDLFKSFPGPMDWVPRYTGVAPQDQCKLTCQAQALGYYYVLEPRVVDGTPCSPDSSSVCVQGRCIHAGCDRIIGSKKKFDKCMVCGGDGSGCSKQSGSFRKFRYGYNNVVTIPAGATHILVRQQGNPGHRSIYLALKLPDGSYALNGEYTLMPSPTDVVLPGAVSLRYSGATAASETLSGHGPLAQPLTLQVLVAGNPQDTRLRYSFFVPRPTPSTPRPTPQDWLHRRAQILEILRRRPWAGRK
Put plainly: Aggrecanase-1 inhibitory action (Particle Assay, GAG release from aggrecan-containing polyacrylamide particles). The essentials:
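Enzyme and compound incubated with aggrecan-containing polyacrylamide particles in Tris-HCl buffer at 37° C for 15 h. Released GAG in supernatant measured with 1,9-dimethylmethylene blue at 595 nm against chondroitin sulfate standard; % inhibition from enzyme-free and inhibitor-free wells, reported as TC50 (μM).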

Assay [2] concerns the target T2, MMP-1 (Homo sapiens, UniProt P03956).
T2 sequence (P03956 100-469): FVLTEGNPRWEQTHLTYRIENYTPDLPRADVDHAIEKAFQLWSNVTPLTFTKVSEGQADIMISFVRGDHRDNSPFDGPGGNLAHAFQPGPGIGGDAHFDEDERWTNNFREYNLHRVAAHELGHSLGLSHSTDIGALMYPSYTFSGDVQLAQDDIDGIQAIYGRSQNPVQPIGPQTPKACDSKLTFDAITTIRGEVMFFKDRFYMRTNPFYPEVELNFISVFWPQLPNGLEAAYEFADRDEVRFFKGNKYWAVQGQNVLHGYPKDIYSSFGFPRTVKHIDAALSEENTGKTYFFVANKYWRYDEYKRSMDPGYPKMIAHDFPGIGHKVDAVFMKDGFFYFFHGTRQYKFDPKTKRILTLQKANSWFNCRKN
In words: MMP-1 inhibitory action (Type I collagen Activity Measurement kit, FITC-labeled collagen type I).

Assay [3] has as its target T3, Recombinant Human MMP-13 (Homo sapiens, UniProt P45452).
T3 construct: purchased R&D systems 511-MM
Put plainly: MMP-13 inhibitory activity (MMP-13 specific fluorescent substrate with quencher). The essentials:
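Recombinant human MMP-13 with test compound, reaction started with quenched fluorogenic peptide 7-MCA-Pro-CHA-Gly-NVal-His-Ala-DPA in Tris-HCl buffer, 1 h at 25 °C, stopped with acetic acid. Fluorescence at Ex 325/Em 405 nm; % inhibition versus enzyme-free and inhibitor-free wells, reported as IC50 (μM).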

Where [4] appears, read: Experimental Example 1, read-out: IC50 AG1.
The mark [5] stands for this setting: Experimental Example 2, read-out: IC50 MMP1.
[6] abbreviates: Experimental Example 3, read-out: IC50 MMP13.
Setting [7] is: aggrecanase-1 inhibitory action, read-out: IC50 AG1 (Experimental Example 1).
[8] abbreviates: MMP-1 inhibitory action, FITC-labeled collagen type I, 37° C. for 3 hr, read-out: IC50 MMP1 (Experimental Example 2).
[9] abbreviates: Recombinant Human MMP-13, fluorescent substrate, 25° C. for 1 h, read-out: IC50 MMP13 (Experimental Example 3).

Where two headings read alike, the source gives them in different places.

Take `CC1[C@H](c2ccccc2)[C@]1(NS(=O)(=O)N1CCC(OCc2ccc(Cl)cc2Cl)C1)C(=O)O` (stereo partly drawn) [Example 2-553]: the IC50 in assay [1] (setting [4]), in assay [2] (setting [5]) and in assay [3] (setting [6]) was no less than 1000 nM each time.
For the molecule `O=C(O)C1(NS(=O)(=O)c2ccc(-c3ccc(Cl)cc3)s2)CC1COc1ccccc1` (stereo not drawn) [Example 2-52], the values for the IC50 in assay [1] (setting [7]), in assay [2] (setting [8]) and in assay [3] (setting [9]) were less than 1000 nM, no less than 10000 nM and less than 1000 nM, respectively.
Consider `CC1(C)C(c2ccccc2)C1(NS(=O)(=O)c1ccc(-c2cc(C(F)(F)F)on2)s1)C(=O)O` (stereo not drawn) [Example 2-275], for which the IC50 was less than 100 nM in assay [1] (setting [4]), no less than 1000 nM in assay [2] (setting [5]) and less than 1000 nM in assay [3] (setting [6]).
As for `CN1CCN(C(=O)CCc2ccc([C@H]3C[C@@]3(NS(=O)(=O)c3ccc(-c4cc(C(F)(F)F)on4)s3)C(=O)O)cc2)CC1` [Example 2-280], the figures for the IC50 in assay [1] (setting [4]), in assay [2] (setting [5]) and in assay [3] (setting [6]) were less than 1000 nM, no less than 10000 nM and less than 100 nM, respectively.
With `CN1CCN(C(=O)Cc2cccc(C3CC3(NS(=O)(=O)c3ccc(-c4cc(C(F)(F)F)on4)s3)C(=O)O)c2)CC1` (stereo not drawn) [Example 2-221], the IC50 in assay [1] (setting [7]) was less than 1000 nM; in assay [2] (setting [8]), no less than 1000 nM; in assay [3] (setting [9]), less than 100 nM.
Regarding `CC1[C@H](c2ccccc2)[C@]1(NS(=O)(=O)c1ccc(-c2cc(N(C)C)on2)s1)C(=O)O` (stereo partly drawn) [Example 2-419], the IC50 in assay [1] (setting [4]) was less than 100 nM; in assay [2] (setting [5]), less than 1000 nM; in assay [3] (setting [6]) it was less than 100 nM.
Regarding `CC1[C@@H](c2ccccc2)[C@@]1(NS(=O)(=O)c1ccc(-c2cc(C(F)(F)F)on2)s1)C(=O)O` (stereo partly drawn) [Example 2-288], the IC50 in assay [1] (setting [4]) was less than 100 nM; in assay [2] (setting [5]), less than 1000 nM; in assay [3] (setting [6]), less than 100 nM.
As for `O=C(O)[C@]1(NS(=O)(=O)c2ccc(-c3cc(CF)on3)s2)C[C@@H]1c1ccccc1` [Example 2-98], the IC50 is less than 100 nM in assay [1] (setting [7]), no less than 1000 nM in assay [2] (setting [8]) and less than 100 nM in assay [3] (setting [9]).
With `O=C(O)C1(NS(=O)(=O)c2ccc(-c3ccc(Cl)cc3)s2)CC1c1ccc(Br)cc1` (stereo not drawn) [Example 2-202], the concentration for half-maximal inhibition (IC50) in assay [1] (setting [7]) is less than 1000 nM; in assay [2] (setting [8]), no less than 10000 nM; in assay [3] (setting [9]), less than 1000 nM.
As to `C[C@]1(c2ccccc2)C[C@@]1(NS(=O)(=O)c1ccc(-c2cc(C(F)(F)C(F)(F)F)on2)s1)C(=O)O` [Example 2-112], the IC50 in assay [1] (setting [7]) was less than 1000 nM; in assay [2] (setting [8]) it was no less than 10000 nM; in assay [3] (setting [9]) it was no less than 1000 nM.
With `COc1ccc(CN2CCN(S(=O)(=O)N[C@@]3(C(=O)O)C(C)[C@@H]3c3ccccc3)CC2)cc1` (stereo partly drawn) [Example 2-536], the IC50 in assay [1] (setting [4]), in assay [2] (setting [5]) and in assay [3] (setting [6]) was no less than 1000 nM in each case.
Turning to `CC1[C@H](c2ccccc2)[C@]1(NS(=O)(=O)c1ccc(-n2cccn2)s1)C(=O)O` (stereo partly drawn) [Example 2-542], the IC50 in assay [1] (setting [4]) was less than 1000 nM; in assay [2] (setting [5]), no less than 1000 nM; in assay [3] (setting [6]) it was less than 100 nM.
On to `CC1[C@H](c2ccccc2)[C@]1(NS(=O)(=O)c1ccc(-n2ccc(C(F)(F)F)n2)s1)C(=O)O` (stereo partly drawn) [Example 2-514], for which the results for the IC50 in assay [1] (setting [4]), in assay [2] (setting [5]) and in assay [3] (setting [6]) were less than 1000 nM, no less than 1000 nM and less than 1000 nM, respectively.
Take `C[C@]1(c2ccccc2)C[C@@]1(NS(=O)(=O)c1ccc(-c2ccc(O)c(F)c2)s1)C(=O)O` [Example 2-589]: the half-maximal inhibitory concentration (IC50) was less than 1000 nM in assay [1] (setting [4]), no less than 1000 nM in assay [2] (setting [5]) and no less than 1000 nM in assay [3] (setting [6]).
In the case of `O=C(NCC1(c2ccccc2)CC1(NS(=O)(=O)c1ccc(-c2ccc(Cl)cc2)s1)C(=O)O)C1CCCCC1` (stereo not drawn) [Example 2-380], the IC50 in assay [1] (setting [4]) was less than 1000 nM; in assay [2] (setting [5]), no less than 10000 nM; in assay [3] (setting [6]), less than 1000 nM.
`O=C(O)C1(NS(=O)(=O)c2ccc(-c3ccc(Cl)cc3)cc2)CC1c1cccc(-c2ccccc2)c1` (stereo not drawn) [Example 1-26]: the IC50 in assay [1] (setting [7]) was less than 1000 nM; in assay [2] (setting [8]) it was no less than 10000 nM; in assay [3] (setting [9]), less than 1000 nM.
Consider `CC1[C@H](c2ccccc2)[C@]1(NS(=O)(=O)N1CCN(c2nc3ccccc3o2)CC1)C(=O)O` (stereo partly drawn) [Example 2-464], for which the values for the IC50 in assay [1] (setting [4]), in assay [2] (setting [5]) and in assay [3] (setting [6]) were no less than 1000 nM, no less than 10000 nM and no less than 1000 nM, respectively.
